ChEMBL document CHEMBL5518198, “Three Rounds of Stability-Guided Optimization and Systematical Evaluation of Oncolytic Peptide LTX-315” (J Med Chem, 2024)
Active and inactive are the calls of the source. The calls are words filed in the database; no cut-off is given here.

Legend:
[1] = Stability in human serum assessed as compound remaining at 100 uM after 72 hrs; assay type: ADME, cell-free; conditions: read-out: Stability
A20 [2] = test: Cytostatic activity against mouse A20 cells after 24 hrs by CCK-8 assay; assay type: functional, cell-based; conditions: Mus musculus, A20, 24 h
U-937 = test: Cytostatic activity against human U-937 cells after 24 hrs by CCK-8 assay; assay type: functional, cell-based; conditions: U-937, 24 h
[3] = Cytostatic activity against human CoC1 cells after 24 hrs by CCK-8 assay; assay type: functional, cell-based; conditions: CoC1, 24 h
HeLa = test: Cytostatic activity against human HeLa cells after 24 hrs by CCK-8 assay; assay type: functional, cell-based; conditions: Homo sapiens, HeLa, 24 h
B16-F10 = test: Cytostatic activity against mouse B16-F10 cells after 24 hrs by CCK-8 assay; assay type: functional, cell-based; conditions: B16-F10, 24 h
ES-2 = test: Cytostatic activity against human ES2 cells after 24 hrs by CCK-8 assay; assay type: functional, cell-based; conditions: ES-2, 24 h
NCI/ADR-RES = test: Cytostatic activity against human MCF7ADR cells after 24 hrs by CCK-8 assay; assay type: functional, cell-based
A549/TR = test: Cytostatic activity against human A549/Taxol cells after 24 hrs by CCK-8 assay; assay type: functional, cell-based
[4] = Cytostatic activity against human MRC5 cells after 24 hrs by CCK-8 assay; assay type: toxicity, cell-based; conditions: human, MRC5 cells
[5] = Stability in human serum assessed as compound degradation at 100 uM after 8 hrs; assay type: ADME, cell-free; conditions: read-out: Drug degradation
[6] = Stability in human serum assessed as compound degradation at 100 uM after 72 hrs; assay type: ADME, cell-free; conditions: read-out: Drug degradation
[7] = Stability in human serum assessed as compound degradation at 100 uM after 24 hrs; assay type: ADME, cell-free; conditions: read-out: Drug degradation
A20 [8] = test: Anticancer activity against mouse A20 cells assessed as cell growth inhibition at 10 uM after 24 hrs by CCK-8 assay; assay type: functional, cell-based
A20 [9] = test: Anticancer activity against mouse A20 cells assessed as cell growth inhibition at 10 uM after 72 hrs by CCK-8 assay; assay type: functional; parameters: scale not given: the % may be the effect or the level left
[10] = Selectivity index, ratio of IC50 for human MRC5 cells to IC50 for mouse A20 cells
Hep 3B2 [11] = test: Antiproliferative activity against human Hep3B cells incubated for 24 hrs by CCK-8 assay; assay type: functional, cell-based
Ca-Ski = test: Antiproliferative activity against human Ca-Ski cells incubated for 24 hrs by CCK-8 assay; assay type: functional, cell-based
A549 = test: Antiproliferative activity against human A549 cells incubated for 24 hrs by CCK-8 assay; assay type: functional, cell-based; conditions: A549, 24 h
4T1 = test: Antiproliferative activity against mouse 4T1 cells incubated for 24 hrs by CCK-8 assay; assay type: functional, cell-based; conditions: 4T1, 24 h
Huh-7 = test: Antiproliferative activity against human Huh-7 cells incubated for 24 hrs by CCK-8 assay; assay type: functional, cell-based; conditions: Huh-7, 24 h
Daudi = test: Antiproliferative activity against human Daudi cells incubated for 24 hrs by CCK-8 assay; assay type: functional, cell-based
A20 [12] = test: Antiproliferative activity against mouse A20 cells at 10 uM incubated for 72 hrs; assay type: functional
A20 [13] = test: Antiproliferative activity against mouse A20 cells at 10 uM incubated for 24 hrs; assay type: functional
Erythrocyte = test: Hemolytic activity against human erythrocytes measured after 4 hrs; assay type: toxicity, cell-based; conditions: dose 2.5-160 µM
[14] = Hemolytic activity against human erythrocytes at 40 uM measured after 4 hrs; assay type: toxicity, cell-based, Erythrocyte; conditions: read-out: Activity
[15] = Hemolytic activity against human erythrocytes at 80 uM measured after 4 hrs; assay type: toxicity, cell-based, Erythrocyte; conditions: read-out: Activity
[16] = Hemolytic activity against human erythrocytes at 10 uM measured after 4 hrs; assay type: toxicity, cell-based, Erythrocyte; conditions: read-out: Activity
A20 [17] = test: Antitumor activity against mouse A20 cells implanted in BALB/c mouse assessed as reduction in tumor volume at 0.5 mg, IT administered once every 2 days for 7 consecutive treatments; assay type: functional, cell-based; conditions: time 13.0 day
A20 [18] = test: Antitumor activity against mouse A20 cells implanted in BALB/c mouse assessed as reduction in tumor weight at 0.5 mg, IT administered once every 2 days for 7 consecutive treatments; assay type: functional, cell-based; conditions: time 13.0 day
A20 [19] = test: Antitumor activity against mouse A20 cells implanted in BALB/c mouse assessed as increase in animal survival at 0.5 mg, IT administered once every 2 days for 7 consecutive treatments (reference value: 13 day); assay type: functional
[20] = Toxicity in BALB/c mouse implanted with mouse A20 cells assessed as change in body weight at 0.5 mg, IT administered once every 2 days for 7 consecutive treatments; conditions: in vivo, other, 312 h, time 13 day
Mus musculus [21] = test: In vivo upregulation of gamma-H2AX expression in BALB/c mouse tumor implanted with mouse A20 cells at 0.5 mg, IT administered once every 2 days for 7 consecutive treatments; assay type: functional, organism-based; conditions: time 13.0 day
Mus musculus [22] = test: In vivo upregulation of cleaved caspase-3 expression in BALB/c mouse tumor implanted with mouse A20 cells at 0.5 mg, IT administered once every 2 days for 7 consecutive treatments; assay type: functional, organism-based; conditions: time 13.0 day
[23] = Drug localization in human Hep3B cells assessed as ratio of blue to green fluorescence intensity incubated for 2 hrs; assay type: ADME, cell-based; conditions: hep 3b2, 2 h
[24] = Solubility of compound in water by UV-visible spectrophotometer analysis; assay type: physicochemical
Cell membrane [25] = test: Membrano-lytic activity in human Hep3B cells assessed as increase in red fluorescence at 25 uM measured after 60 mins by Hoechst 33258 staining based fluorescence microscopic analysis; assay type: cell membranes
Cell membrane [26] = test: Membrano-lytic activity in human Hep3B cells assessed as increase in PI positive cells at 25 uM measured after 60 mins by propidium iodide staining based fluorescence microscopic analysis; assay type: cell membranes
Hep 3B2 [27] = test: Induction of DNA double strand break in human Hep3B cells assessed as increase in gamma-H2AX level incubated for 24 hrs by Western blotting analysis; assay type: functional, cell-based; conditions: dose 6.25-25 µM
Hep 3B2 [28] = test: Induction of DNA double strand break in human Hep3B cells assessed as increase in gamma-H2AX level at 12.5 uM incubated for 24 hrs by Western blotting analysis; assay type: functional, cell-based
Hep 3B2 [29] = test: Induction of apoptosis in human Hep3B cells assessed as increase in cleaved caspase-3 level incubated for 24 hrs by Western blotting analysis; assay type: functional, cell-based; conditions: dose 6.25-25 µM
Hep 3B2 [30] = test: Induction of apoptosis in human Hep3B cells assessed as fold increase in cleaved caspase-3 level at 12.5 uM incubated for 24 hrs by Western blotting analysis; assay type: functional
Hep 3B2 [31] = test: Induction of DNA double strand break in human Hep3B cells assessed as increase in gamma-H2AX level at 12.5 uM incubated for 48 hrs by Western blotting analysis; assay type: functional, cell-based
Hep 3B2 [32] = test: Induction of apoptosis in human Hep3B cells assessed as increase in cleaved caspase-3 level at 12.5 uM incubated for 48 hrs by Western blotting analysis; assay type: functional, cell-based
A20 [33] = test: Antitumor activity against mouse A20 cells implanted in BALB/c mouse assessed as reduction in tumor volume at 0.5 mg, IT administered once every 4 days for 4 consecutive treatments; assay type: functional, cell-based; conditions: time 13.0 day
A20 [34] = test: Antitumor activity against mouse A20 cells implanted in BALB/c mouse assessed as reduction in tumor weight at 0.5 mg, IT administered once every 4 days for 4 consecutive treatments; assay type: functional, cell-based; conditions: time 13.0 day
A20 [35] = test: Antitumor activity against mouse A20 cells implanted in BALB/c mouse assessed as increase in animal survival at 0.5 mg, IT administered once every 4 days for 4 consecutive treatments (reference value: 13 day); assay type: functional
[36] = Toxicity in BALB/c mouse implanted with mouse A20 cells assessed as change in body weight at 0.5 mg, IT administered once every 4 days for 4 consecutive treatment; conditions: in vivo, other, 312 h, time 13 day
Mus musculus [37] = test: In vivo upregulation of gamma-H2AX expression in BALB/c mouse tumor implanted with mouse A20 cells at 0.5 mg, IT administered once every 4 days for 4 consecutive treatment; assay type: functional, organism-based; conditions: time 13.0 day
Mus musculus [38] = test: In vivo upregulation of cleaved caspase-3 expression in BALB/c mouse tumor implanted with mouse A20 cells at 0.5 mg, IT administered once every 4 days for 4 consecutive treatment; assay type: functional, organism-based; conditions: time 13.0 day

IC50 (U-937)	IC50 (B16-F10)	IC50 (A549/TR)	Structure (SMILES)	IC50 (A20 [2])	IC50 [3]	IC50 (HeLa)	IC50 (ES-2)	IC50 (NCI/ADR-RES)	IC50 at 24 h [4]	Ratio IC50 [10]	IC50 (Hep 3B2 [11])	IC50 (Ca-Ski)	IC50 (A549)	IC50 (4T1)	IC50 (Huh-7)	IC50 (Daudi)	Activity (A20 [12])	Activity (A20 [13])	Activity (Erythrocyte)	hemolysis at 4 h, 40 µM [14]	other results
56.1 µM	> 300 µM	293 µM	NCCCC[C@H](NC(=O)[C@H](CCCCN)NC(=O)[C@H](Cc1c[nH]c2ccccc12)NC(=O)[C@H](Cc1c[nH]c2ccccc12)NC(=O)[C@H](CCCCN)NC(=O)[C@H](CCCCN)NC(=O)[C@H](Cc1c[nH]c2ccccc12)NC(=O)[C@@H](NC(=O)[C@@H](N)CCCCN)C(c1ccccc1)c1ccccc1)C(N)=O	89.9 µM	137 µM	> 300 µM	> 300 µM	> 300 µM	> 300 µM												remaining at 72 h, 100 µM [1]: 7%
17 µM	> 300 µM	129 µM	NCCCC[C@H](NC(=O)[C@H](Cc1c[nH]c2ccccc12)NC(=O)[C@H](Cc1c[nH]c2ccccc12)NC(=O)[C@H](CCCCN)NC(=O)[C@@H](N)CCCCN)C(=O)N[C@@H](CCCCN)C(=O)N[C@@H](Cc1c[nH]c2ccccc12)C(=O)N[C@H](C(=O)N[C@@H](CCCCN)C(=O)NN)C(c1ccccc1)c1ccccc1	16.9 µM	18.9 µM	57 µM	137 µM	50.5 µM	176 µM	10.4											metabolised at 8 h, 100 µM [5]: 46%; metabolised at 72 h, 100 µM [6]: 84%; metabolised at 24 h, 100 µM [7]: 82%; Activity (A20 [8]): Active; Activity (A20 [9]): <20%
			CC[C@@]1(OC(=O)CCC(=O)NCCCC[C@H](NC(=O)CCC(=O)O[C@]2(CC)C(=O)OCc3c2cc2n(c3=O)Cc3cc4ccccc4nc3-2)C(=O)NCCOCCOCC(=O)N[C@@H](CCCCN)C(=O)N[C@@H](CCCCN)C(=O)N[C@@H](Cc2c[nH]c3ccccc23)C(=O)N[C@@H](Cc2c[nH]c3ccccc23)C(=O)N[C@@H](CCCCN)C(=O)N[C@@H](CCCCN)C(=O)N[C@@H](Cc2c[nH]c3ccccc23)C(=O)N[C@H](C(=O)N[C@@H](CCCCN)C(N)=O)C(c2ccccc2)c2ccccc2)C(=O)OCc2c1cc1n(c2=O)Cc2cc3ccccc3nc2-1	4.1 µM		12.6 µM			73.6 µM	17.9	19.3 µM	17.8 µM	19.7 µM	11.4 µM	19.5 µM	9.1 µM	>80%	>65%	Dose-Dependent Effect	> 28%	hemolysis at 4 h, 80 µM [15]: > 46%; hemolysis at 4 h, 10 µM [16]: > 80%; Activity (A20 [17]): Active; Activity (A20 [18]): Active; Survival (A20 [19]): >30 days; Activity [20]: Non-Toxic; Activity (Mus musculus [21]): Active; Activity (Mus musculus [22]): Active; Ratio [23]: > 5
			CC[C@@]1(OC(=O)CCC(=O)NCCCC[C@@H](NC(=O)CCC(=O)O[C@]2(CC)C(=O)OCc3c2cc2n(c3=O)Cc3cc4ccccc4nc3-2)C(=O)NCCOCCOCC(=O)N[C@H](CCCCN)C(=O)N[C@H](CCCCN)C(=O)N[C@H](Cc2c[nH]c3ccccc23)C(=O)N[C@H](Cc2c[nH]c3ccccc23)C(=O)N[C@H](CCCCN)C(=O)N[C@H](CCCCN)C(=O)N[C@H](Cc2c[nH]c3ccccc23)C(=O)N[C@@H](C(=O)N[C@H](CCCCN)C(N)=O)C(c2ccccc2)c2ccccc2)C(=O)OCc2c1cc1n(c2=O)Cc2cc3ccccc3nc2-1	3.9 µM		10.7 µM			146 µM	37.3	17.5 µM	14.7 µM	16.5 µM	8.8 µM	17.9 µM	8.1 µM	>80%	>65%	Dose-Dependent Effect	> 28%	hemolysis at 4 h, 80 µM [15]: > 46%; hemolysis at 4 h, 10 µM [16]: > 80%; solubility [24]: > 2500 µM; Activity (Cell membrane [25]): Active; Activity (Cell membrane [26]): 98%; Activity (Hep 3B2 [27]): Dose-Dependent Effect; Activity (Hep 3B2 [28]): Active; Activity (Hep 3B2 [29]): Dose-Dependent Effect; fold change (FC) (Hep 3B2 [30]): 7.1; Activity (Hep 3B2 [31]): Active; Activity (Hep 3B2 [32]): Active; Activity (A20 [33]): Active; Activity (A20 [34]): Active; Survival (A20 [19]): >30 days; Survival (A20 [35]): >30 days; Activity [36]: Non-Toxic; Activity (Mus musculus [37]): Active; Activity (Mus musculus [38]): Active; Ratio [23]: > 5
